Experimental data published in ChEMBL document CHEMBL3608254, “Discovery of novel triazolobenzazepinones as γ-secretase modulators with central Aβ42 lowering in rodents and rhesus monkeys” (Bioorg Med Chem Lett, 2015).
≈ marks a conversion by molar mass, not a printed value. Blank lines part the entries; values can stand above or below the molecule they belong to. Calls of active or inactive are those of the source. No cut-off for these calls is given here.

Key:
[1] = Inhibition of gamma-secretase-mediated cleavage of NotchdeltaE in human HeLa cells expressing NotchdeltaE assessed as intracellular release of Notch intracellular domain (NICD)/N-terminal luciferase by luminescent method; type: cell-based
Gamma-secretase [2] = assay: Inhibition of gamma-secretase in human SH-SY5Y cells expressing beta-APP C-terminal fragment SPA4CT assessed as decrease of amyloid beta-40 level by electrochemiluminescent method; type: cell-based
Gamma-secretase [3] = assay: Inhibition of gamma-secretase in human SH-SY5Y cells expressing beta-APP C-terminal fragment SPA4CT assessed as decrease of amyloid beta-42 level by electrochemiluminescent method; type: cell-based
[4] = molecular target: T1, Voltage-gated inwardly rectifying potassium channel KCNH2 (Homo sapiens, UniProt Q12809)
Description: Binding affinity to human ERG expressed in HEK cells by MK-499 radioligand displacement assay

Mus musculus = assay: Antialzheimer's disease activity in po dosed APP-YAC transgenic mouse assessed as reduction of amyloid beta-40/42 level in brain measured after 6 hrs; type: functional
Rattus norvegicus [5] = assay: Antialzheimer's disease activity in po dosed Sprague-Dawley rat assessed as reduction of amyloid beta-40/42 level in brain measured after 6 hrs; type: functional
Plasma = assay: AUC in plasma of rhesus monkey cisterna-magna-ported model at 6 mg/kg bolus dose followed by 4 hrs infusion of 44 mg/kg, iv; type: ADME, organism-based, Macaca mulatta; conditions: in vivo
[6] = Apparent permeability of the compound in pig LLC-PK1 cells; type: ADME, cell-based, Sus scrofa
CYP3A4 [7] = molecular target: T2, CYP3A4 (Homo sapiens, UniProt P08684); assay: Inhibition of CYP3A4 (unknown origin) at 10 uM; type: ADME
[8] = Fraction unbound in dog; type: ADME, organism-based, Canis lupus familiaris; conditions: in vivo
[9] = Oral bioavailability in rhesus monkey at 0.5 mg/kg; type: ADME, organism-based, Macaca mulatta; conditions: in vivo
[10] = Half life in Sprague-Dawley rat at 1 mg/kg, iv; type: ADME, organism-based; conditions: in vivo
[11] = molecular target: Sodium-dependent serotonin transporter (Homo sapiens, UniProt P31645); assay: Inhibition of SERT (unknown origin)
Rhesus monkey [12] = assay: Antialzheimer's disease activity in rhesus monkey cisterna-magna-ported model assessed as reduction of amyloid beta-42 level in CSF at 6 mg/kg bolus dose followed by 4 hrs infusion of 44 mg/kg, iv measured up to 20 hrs; type: functional, organism-based; conditions: Macaca mulatta
[13] = Half life in dog hepatocytes; type: ADME, cell-based, Canis lupus familiaris, Hepatocyte
[14] = Volume of distribution at steady state in dog at 0.25 mg/kg, iv and 0.5 mg/kg, po; type: ADME, organism-based, Canis lupus familiaris; conditions: in vivo, read-out: Vdss
[15] = Half life in human hepatocytes; type: ADME, cell-based, Hepatocyte
Rhesus monkey [16] = assay: Antialzheimer's disease activity in rhesus monkey cisterna-magna-ported model assessed as reduction of amyloid beta-40 level in CSF at 6 mg/kg bolus dose followed by 4 hrs infusion of 44 mg/kg, iv measured up to 20 hrs; type: functional, organism-based; conditions: Macaca mulatta
[17] = Volume of distribution at steady state in rhesus monkey at 0.25 mg/kg, iv and 0.5 mg/kg, po; type: ADME, organism-based, Macaca mulatta; conditions: in vivo, read-out: Vdss
[18] = Volume of distribution at steady state in Sprague-Dawley rat at 1 mg/kg, iv and 2 mg/kg, po; type: ADME, organism-based; conditions: in vivo, read-out: Vdss
[19] = Fraction unbound in rhesus monkey; type: ADME, organism-based, Macaca mulatta; conditions: in vivo
Rattus norvegicus [20] = assay: Antialzheimer's disease activity in Sprague-Dawley rat assessed as reduction of amyloid beta-42 level in brain at 100 mg/kg, po after 6 hrs relative to control; type: functional
[21] = Lipophilicity, log D of the compound; type: physicochemical; conditions: octanol/water
CYP2C9 = CYP2C9 (Homo sapiens, UniProt P11712); assay: Inhibition of CYP2C9 (unknown origin) at 10 uM; type: ADME
[22] = AUC in cerebrospinal fluid of rhesus monkey cisterna-magna-ported model at 6 mg/kg bolus dose followed by 4 hrs infusion of 44 mg/kg, iv; type: ADME, organism-based, Macaca mulatta
[23] = Plasma clearance in Sprague-Dawley rat at 1 mg/kg, iv and 2 mg/kg, po; type: ADME, organism-based
[24] = Half life in rat hepatocytes; type: ADME, cell-based, Hepatocyte
[25] = Half life in dog at 0.25 mg/kg, iv; type: ADME, organism-based, Canis lupus familiaris; conditions: in vivo
Canis familiaris = assay: Dose normalized AUC (0 to 24 hrs) in dog at 0.5 mg/kg, po; type: ADME, organism-based, Canis lupus familiaris; conditions: in vivo
[26] = molecular target: T3, Nuclear receptor subfamily 1 group I member 2 (Homo sapiens, UniProt O75469); assay: Activation of PXR (unknown origin); type: ADME
T3 sequence (O75469 whole entry): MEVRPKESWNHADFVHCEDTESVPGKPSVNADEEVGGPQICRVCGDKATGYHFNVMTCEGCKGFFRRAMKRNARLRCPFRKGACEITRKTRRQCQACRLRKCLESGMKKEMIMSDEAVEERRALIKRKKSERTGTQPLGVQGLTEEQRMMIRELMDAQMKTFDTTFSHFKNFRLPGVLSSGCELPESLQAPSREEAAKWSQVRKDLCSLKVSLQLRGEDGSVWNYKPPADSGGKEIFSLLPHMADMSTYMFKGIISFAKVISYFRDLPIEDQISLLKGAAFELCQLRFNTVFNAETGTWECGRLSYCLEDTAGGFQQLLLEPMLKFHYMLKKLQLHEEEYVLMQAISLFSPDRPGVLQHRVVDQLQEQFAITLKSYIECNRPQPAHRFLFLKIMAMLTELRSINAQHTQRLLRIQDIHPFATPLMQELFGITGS

[27] = Plasma clearance in dog at 0.25 mg/kg, iv and 0.5 mg/kg, po; type: ADME, organism-based, Canis lupus familiaris
[28] = Oral bioavailability in dog at 0.5 mg/kg; type: ADME, organism-based, Canis lupus familiaris; conditions: in vivo
[29] = Solubility of the compound at pH 7; type: physicochemical; conditions: buffer
[30] = Drug level in Sprague-Dawley rat brain at 100 mg/kg, po after 6 hrs; type: ADME, organism-based; conditions: read-out: Drug uptake
[31] = Solubility of the compound at pH 2; type: physicochemical; conditions: buffer
[32] = Half life in rhesus monkey hepatocytes; type: ADME, cell-based, Macaca mulatta, Hepatocyte
[33] = Half life in rhesus monkey at 0.25 mg/kg, iv; type: ADME, organism-based, Macaca mulatta; conditions: in vivo
CYP2D6 = CYP2D6 (Homo sapiens, UniProt P10635); assay: Inhibition of CYP2D6 (unknown origin) at 10 uM; type: ADME
Rattus norvegicus [34] = assay: Dose normalized AUC (0 to 24 hrs) in Sprague-Dawley rat at 2 mg/kg, po; type: ADME, organism-based; conditions: in vivo
Rattus norvegicus [35] = assay: Oral bioavailability in Sprague-Dawley rat at 2 mg/kg; type: ADME, organism-based; conditions: in vivo
[36] = Fraction unbound in rat; type: ADME, organism-based; conditions: in vivo
[37] = molecular target: T1, Voltage-gated inwardly rectifying potassium channel KCNH2; assay: Inhibition of human ERG expressed in HEK cells assessed as reduction in IKr current by patchXpress assay; type: cell-based, HEK293
CYP3A4 [38] = molecular target: T2, CYP3A4; assay: Time dependent inhibition of CYP3A4 (unknown origin) at 50 uM; type: ADME
Rattus norvegicus [39] = assay: Dose normalized AUC in Wistar-Han rat at 100 mg/kg, po; type: ADME, organism-based; conditions: in vivo
[40] = Fraction unbound in human; type: ADME, organism-based; conditions: in vivo
[41] = Half life in rat liver microsomes; type: ADME

T1 sequence (Q12809 whole entry): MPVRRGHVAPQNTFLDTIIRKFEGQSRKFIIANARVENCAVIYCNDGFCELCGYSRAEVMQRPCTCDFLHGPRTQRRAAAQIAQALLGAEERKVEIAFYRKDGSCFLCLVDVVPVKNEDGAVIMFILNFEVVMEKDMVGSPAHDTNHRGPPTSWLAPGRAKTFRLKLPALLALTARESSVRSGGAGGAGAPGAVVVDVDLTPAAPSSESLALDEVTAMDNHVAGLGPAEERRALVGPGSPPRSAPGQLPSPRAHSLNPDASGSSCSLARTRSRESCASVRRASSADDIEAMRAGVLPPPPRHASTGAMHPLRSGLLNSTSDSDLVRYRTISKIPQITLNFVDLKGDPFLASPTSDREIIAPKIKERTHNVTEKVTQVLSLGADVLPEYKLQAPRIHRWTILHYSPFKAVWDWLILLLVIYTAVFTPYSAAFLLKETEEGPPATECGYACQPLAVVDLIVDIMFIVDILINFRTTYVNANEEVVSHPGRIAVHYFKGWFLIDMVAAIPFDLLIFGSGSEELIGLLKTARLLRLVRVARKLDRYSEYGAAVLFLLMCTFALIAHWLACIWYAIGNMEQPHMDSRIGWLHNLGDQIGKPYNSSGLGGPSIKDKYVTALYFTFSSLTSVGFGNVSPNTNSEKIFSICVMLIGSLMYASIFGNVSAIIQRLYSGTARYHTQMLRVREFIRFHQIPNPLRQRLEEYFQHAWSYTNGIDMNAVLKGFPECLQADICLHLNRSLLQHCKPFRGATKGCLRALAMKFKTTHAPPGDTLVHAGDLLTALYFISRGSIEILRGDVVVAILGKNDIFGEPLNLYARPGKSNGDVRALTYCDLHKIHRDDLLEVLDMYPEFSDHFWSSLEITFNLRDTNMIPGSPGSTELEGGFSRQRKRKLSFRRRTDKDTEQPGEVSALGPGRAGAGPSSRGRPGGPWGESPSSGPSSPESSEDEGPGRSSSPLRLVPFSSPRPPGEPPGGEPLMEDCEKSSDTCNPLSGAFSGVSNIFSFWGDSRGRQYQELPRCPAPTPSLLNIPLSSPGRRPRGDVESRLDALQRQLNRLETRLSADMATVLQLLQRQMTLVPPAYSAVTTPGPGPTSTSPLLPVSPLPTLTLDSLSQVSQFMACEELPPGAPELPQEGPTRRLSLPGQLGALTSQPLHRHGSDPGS
T2 sequence (P08684 whole entry): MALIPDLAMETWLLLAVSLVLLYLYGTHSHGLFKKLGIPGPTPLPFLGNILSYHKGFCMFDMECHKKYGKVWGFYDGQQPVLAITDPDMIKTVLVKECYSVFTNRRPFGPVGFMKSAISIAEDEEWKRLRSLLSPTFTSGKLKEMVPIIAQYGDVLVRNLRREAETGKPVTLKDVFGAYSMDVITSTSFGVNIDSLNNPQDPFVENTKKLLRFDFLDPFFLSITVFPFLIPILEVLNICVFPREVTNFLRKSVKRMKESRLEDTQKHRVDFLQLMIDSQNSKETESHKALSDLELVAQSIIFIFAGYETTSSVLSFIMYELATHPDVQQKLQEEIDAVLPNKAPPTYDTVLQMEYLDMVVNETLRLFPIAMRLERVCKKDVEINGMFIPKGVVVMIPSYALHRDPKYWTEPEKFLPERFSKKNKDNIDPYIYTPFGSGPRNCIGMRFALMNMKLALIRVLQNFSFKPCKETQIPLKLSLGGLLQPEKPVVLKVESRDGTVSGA
Sequence of CYP2D6 (P10635 whole entry): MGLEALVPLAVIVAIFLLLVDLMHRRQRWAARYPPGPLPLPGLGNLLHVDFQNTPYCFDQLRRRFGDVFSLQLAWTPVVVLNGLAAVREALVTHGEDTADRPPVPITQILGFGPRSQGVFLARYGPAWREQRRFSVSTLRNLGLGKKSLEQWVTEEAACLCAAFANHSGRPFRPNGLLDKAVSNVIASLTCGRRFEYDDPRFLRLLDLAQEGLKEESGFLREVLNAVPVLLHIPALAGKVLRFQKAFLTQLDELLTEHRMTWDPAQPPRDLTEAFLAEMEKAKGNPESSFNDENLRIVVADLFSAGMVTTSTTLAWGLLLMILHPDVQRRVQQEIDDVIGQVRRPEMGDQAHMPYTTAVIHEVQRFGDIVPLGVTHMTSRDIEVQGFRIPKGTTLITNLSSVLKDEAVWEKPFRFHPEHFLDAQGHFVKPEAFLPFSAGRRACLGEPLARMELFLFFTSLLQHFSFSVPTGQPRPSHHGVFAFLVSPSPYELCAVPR
Sequence of CYP2C9 (P11712 whole entry, the tested form may be a part): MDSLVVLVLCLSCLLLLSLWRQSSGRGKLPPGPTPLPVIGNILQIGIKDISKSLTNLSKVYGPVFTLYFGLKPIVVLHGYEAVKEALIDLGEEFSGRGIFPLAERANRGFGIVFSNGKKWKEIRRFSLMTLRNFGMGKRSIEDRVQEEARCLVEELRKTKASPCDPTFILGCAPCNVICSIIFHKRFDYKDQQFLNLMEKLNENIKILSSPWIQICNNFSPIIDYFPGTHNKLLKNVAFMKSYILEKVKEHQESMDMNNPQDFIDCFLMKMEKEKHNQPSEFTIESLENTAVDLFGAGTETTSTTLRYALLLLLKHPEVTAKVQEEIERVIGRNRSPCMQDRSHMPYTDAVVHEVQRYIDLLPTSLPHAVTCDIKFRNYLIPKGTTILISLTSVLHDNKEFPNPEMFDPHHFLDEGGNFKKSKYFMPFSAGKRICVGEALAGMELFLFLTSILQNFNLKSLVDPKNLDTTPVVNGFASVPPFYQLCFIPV

Compound: COc1cc(-c2cn(C3(C)CCc4ccccc4N(CC(F)(F)F)C3=O)nn2)ccc1-n1cnc(C)c1 (centres undefined)
IC50 [4]: 6 µM
Activity (Mus musculus): Active
IC50 [1]: > 50 µM
Activity (Rattus norvegicus [5]): Active
IC50 (Gamma-secretase [2]): 6.38 µM
IC50 (Gamma-secretase [3]): 0.58 µM

Compound: COc1cc(-c2cn(C3CCc4ccccc4N(CC4(C)COC4)C3=O)nn2)ccc1-n1cnc(C)c1 (racemic)
IC50 [1]: > 50 µM
IC50 (Gamma-secretase [2]): 7.48 µM
IC50 (Gamma-secretase [3]): 1.25 µM

Compound: COc1cc(-c2cn(C3CCc4cccnc4N(CC(F)(F)F)C3=O)nn2)ccc1-n1cnc(C)c1 (centres undefined)
IC50 [4]: 8.74 µM
Activity (Mus musculus): Active
IC50 [1]: > 50 µM
Activity (Rattus norvegicus [5]): Active
IC50 (Gamma-secretase [2]): 1.34 µM
IC50 (Gamma-secretase [3]): 0.18 µM

Compound: COc1cc(-c2cn(C3CCc4ccccc4N(C)C3=O)nn2)ccc1-n1cnc(C)c1 (centres undefined)
IC50 [1]: > 50 µM
IC50 (Gamma-secretase [2]): 3.08 µM
IC50 (Gamma-secretase [3]): 0.43 µM

Compound: COc1cc(-c2cn(C3CCc4ccccc4N(CC(F)(F)F)C3=O)nn2)ccc1-n1cnc(C)c1 (centres undefined)
half-life [41]: 35 min
IC50 [1]: > 50 µM
IC50 (Gamma-secretase [2]): 0.32 µM
IC50 (Gamma-secretase [3]): 0.07 µM

The next lines start with results.

IC50 [1]: > 50 µM
IC50 (Gamma-secretase [2]): 3.14 µM
IC50 (Gamma-secretase [3]): 0.44 µM
Compound: COc1cc(-c2cn(C3CCc4ccccc4N(CCF)C3=O)nn2)ccc1-n1cnc(C)c1 (centres undefined)

IC50 [1]: > 50 µM
IC50 (Gamma-secretase [2]): 4.69 µM
IC50 (Gamma-secretase [3]): 0.88 µM
Compound: COc1cc(-c2cn(C3CCc4ccccc4N(Cc4cccnc4)C3=O)nn2)ccc1-n1cnc(C)c1 (racemic)

IC50 [1]: > 50 µM
IC50 (Gamma-secretase [2]): 5.4 µM
IC50 (Gamma-secretase [3]): 1.08 µM
Compound: COc1cc(-c2cn(C3CCc4ccccc4N(Cc4ccccn4)C3=O)nn2)ccc1-n1cnc(C)c1 (racemic)

AUC (Plasma): 183 µM·h
Papp [6]: 25 ×10⁻⁶ cm/s
inhibition at 10 µM (CYP3A4 [7]): 42%
fraction unbound [8]: 0.058
bioavailability [9]: < 5%
half-life [10]: 48 min
IC50 [11]: 0.032 µM
half-life [13]: 67 min
Vd [14]: 14 L/kg
half-life [15]: 61 min
Vd [17]: 2 L/kg
Vd [18]: 4.8 L/kg
fraction unbound [19]: 0.057
logD [21]: 3.3
inhibition at 10 µM (CYP2C9): 68%
AUC at 4 h [22]: 2.2 µM·h
clearance [23]: 38 mL/min/kg
IC50 [1]: 39.8 µM
half-life [24]: 36 min
half-life [25]: 372 min
AUCt/dose (Canis familiaris): 0.1 µM·kg·h/mg
EC50 [26]: > 30 µM
clearance [27]: 82 mL/min/kg
bioavailability [28]: < 5%
solubility [29]: 5.6 µM (≈ 2.88 µg/mL)
concentration at 6 h [30]: 35 µM
solubility [31]: 180 µM (≈ 92.6 µg/mL)
half-life [32]: 49 min
half-life [33]: 72 min
inhibition at 10 µM (CYP2D6): 28%
AUCt/dose (Rattus norvegicus [34]): 1.6 µM·kg·h/mg
F (Rattus norvegicus [35]): 190%
fraction unbound [36]: 0.037
inhibition at 50 µM (CYP3A4 [38]): 18%
AUC/dose (Rattus norvegicus [39]): 8.8 µM·kg·h/mg
fraction unbound [40]: 0.036
Compound: COc1cc(-c2cn(C3CCc4c(F)cccc4N(CC(F)(F)F)C3=O)nn2)ccc1-n1cnc(C)c1 (centres undefined) [GSM1]
IC50 [4]: 2.61 µM
Activity (Rhesus monkey [12]): Active
ED50 (Mus musculus): 15 mg/kg
Activity (Rhesus monkey [16]): inactive
inhibition in vivo at 100 mg/kg (Rattus norvegicus [20]): 92%
ED50 (Rattus norvegicus [5]): 15 mg/kg
IC50 [37]: 12.9 µM

IC50 [1]: 33 µM
IC50 (Gamma-secretase [2]): 4.72 µM
IC50 (Gamma-secretase [3]): 0.39 µM
Compound: COc1cc(-c2cn(C3CCc4ccccc4NC3=O)nn2)ccc1-n1cnc(C)c1 (centres undefined)

inhibition [11]: inactive
IC50 [1]: 41.8 µM
IC50 (Gamma-secretase [2]): 0.94 µM
IC50 (Gamma-secretase [3]): 0.15 µM
Compound: COc1cc(-c2cn(C3CCc4ncccc4N(CC(F)(F)F)C3=O)nn2)ccc1-n1cnc(C)c1 (centres undefined)
IC50 [4]: > 50 µM
Activity (Mus musculus): Active
Activity (Rattus norvegicus [5]): Active
